From patent US7132296B2, “Method for assaying the antioxidant capacity of a sample” (Medical Products Manufacturing, LLC, priority 2002, dated 2006)

Experiments:
[1] = ORAC assay with B-phycoerythrin probe (ORACB-PE / ORACPE); type: biochemical; conditions: calculated based on equation 2, n > 3
Procedure: In accordance with the published ORAC assay, a sample such as fresh fruit, blood senun, or an additive or supplement in powder form is prepared for extraction and extracted first in water and then in acetone. A protein based fluorescent probe, namely B-phycoerythrin (B-PE) is then added to the extract. A standard, having high antioxidant capacity, such as diluted grape seed extract (GSE) or TROLOX® (6-hydroxy-2,5,7,8-tetramethylchroman-2-carboxylic acid), a water soluble analog of vitamin E, is added to the extract to provide a comparison of the antioxidant capacity of the sample to the standard. The extract, the standard, and a blank sample are then loaded into the COBAS FARA II device and an initial fluorescence emission of the probe is taken. Next, AAPH, (2,2′-azobis (2-amidino-propane) dihydrochloride), which generates free radicals upon heating, is added to the extract of the sample and the standard and fluorescence emission readings are taken until a zero value is reached for the extract of the sample. To measure the protective effect of an antioxidant using the ORAC assay, the area under the fluorescence decay curve (AUC) of the sample is calculated and compared to that of the blank in which no antioxidant is present.
After the fluorescent readings are taken, the ORAC values are calculated by using a regression equation between standard concentration 62, FIG. 7, and the net area under the B-PE decay curve of sample 60. ORAC values are typically expressed in μmole Trolox equivalent per liter or per gram.
(§1) In accordance with the subject invention the area under the curve (AUC) for the sample, standard, and blank are calculated as: AUC=0.5+f1/f0+f2/f0+f3/f0+f4/f0+ . . . +fi/f0 (1) Where f0=initial fluorescence reading at 0 minute, and fi is the fluorescence reading at time i. Typically, equation (1) is solved and the data analyzed in an electronic spreadsheet such as Microsoft Excel or other similar products or computer programs. The AUC is calculated for sample 60, standard 62 and blank 64. The net AUC is obtained by subtracting the AUC of blank 64 from sample 60. The relative ORAC value for sample 60, expressed in Trolox equivalents is calculated as: Relative ORAC value=[(AUCsample−AUCBlank)/(AUCTrolox−AUCBlank)]×(molarity of Trolox/molarity of sample) (2)

[2] = ORAC assay with fluorescein probe (ORACFL), peroxyl radical scavenging assay; type: biochemical; conditions: for Ratio (ORACFL/ORACB-PE): chemicals, Table 1; for ORACFL: fluorescein probe, calculated based on equation 2, n > 3
Procedure: as §1
Flavonoid compounds and β-phycoerythrin were purchased from Sigma (St. Louis, Mo.). Trolox, ascorbic acid and disodium fluorescein were obtained from Aldrich (Milwaukee, Wis.). 2,2′-azobis (2-amidino-propane) dihydrochloride (AAPH) was purchased from Wako Chemicals USA (Richmond, Va.). Various analyzed samples were also obtained. ORAC analyses were performed on a COBAS FARA II analyzer (Roche Diagnostic System Inc., Branchburg, N.J.; Excitation wavelength=493 nm and emission filter=515 nm).
Ascorbic acid and flavonoids were directly dissolved in acetone/water mixture (50:50, v/v) and diluted with pH 7.4 phosphate buffer for analysis. The solid samples were initially ground in a mechanical mill to produce a fine power; then 0.5 grams were accurately weighed and 20 mL of acetone/water (50:50, v/v) extraction solvent was added. The mixture was shaken at 400 RPM at room temperature on an orbital shaker for one hour. The extracts were centrifuged at 14000 rpm for 15 min, and the supernatant was ready for analysis after appropriate dilution with buffer solution. For liquid samples, a 20 mL aliquot of sample was centrifuged for 15 min and the supernatant was ready for analysis after appropriate dilution. Blood plasma or serum was diluted 100 to 200 fold with pH 7.4 phosphate buffer before analysis. To measure the ORAC in non-protein fraction, protein was removed using 0.5 N perchloric acid (1:1; v:v; plasma:acid), the samples were then centrifuged at 140,000×g for 10 min at 4° C., and the supernatants were removed as the serum nonprotein fractions and appropriately diluted with pH 7.4 phosphate buffer before the analysis.
Peroxyl radical scavenging assay. The COBAS FARA II was programmed to use a two-reagent system (Reaction Mode 3, P-I-SRI-A). The reaction mode pipetted and transferred the sample (20 μL), phosphate buffer (5 μL, 0.75 mM, pH 7.4), and main reagent (365 μL FL, 4.8×10^−8 M) into the main reagent wells of their respective cuvette rotor positions. With spinning of the rotor, the reagents are mixed and incubated for 30 s before recording the initial fluorescence (f0). After the rotor stops spinning, a start reagent (SRI), 8 μL of APPH (0.64M) plus 2 μL of the phosphate buffer is pipetted into the appropriate start reagent well in the curvette rotor. Next, the analyzer starts spinning, mixing of the sample/FL with AAPH reagent and the oxidative reaction starts. […] Between transfers, both sample and reagent transfer pipettes are washed with clean solution to eliminate sample cross contamination. Fluorescence readings are taken at 0.5 s and then every minute thereafter (f1, f2, f3 . . . ) for a duration of 30 min. If the fluorescence of the final reading has not declined by >95% from the first reading, the dilution of sample is adjusted accordingly and the sample is reanalyzed. To determine the maximum voltage for the photomultiplier tube, the AAPH reagent is omitted and is replaced with buffer, and the analysis is run for 10 min. FL and AAPH were prepared in a 0.75 mM phosphate buffer. FL working solution was routinely preincubated in a waterbath at 37° C. for 15 min before loading into the COBAS reagent rack.

SMILES: N[C@@H](CCC(=O)N[C@@H](CS)C(=O)NCC(=O)O)C(=O)O [Glutathione]
- ORACB-PE [1]: 0.32 ± 0.01 relative Trolox equivalent
- Ratio (ORACFL/ORACB-PE) [2]: 1.94
- ORACFL [2]: 0.62 ± 0.02 relative Trolox equivalent

SMILES: C[C@@H]1O[C@@H](Oc2c(-c3ccc(O)c(O)c3)oc3cc(O)cc(O)c3c2=O)[C@H](O)[C@H](O)[C@H]1O [Quercetrin]
- ORACB-PE [1]: 2.70 ± 0.18 relative Trolox equivalent
- Ratio (ORACFL/ORACB-PE) [2]: 2.15
- ORACFL [2]: 5.87 ± 0.49 relative Trolox equivalent

SMILES: O=c1c(O)c(-c2ccc(O)c(O)c2)oc2cc(O)cc(O)c12 [Quercetin]
- ORACB-PE [1]: 2.07 ± 0.05 relative Trolox equivalent
- Ratio (ORACFL/ORACB-PE) [2]: 2.11
- ORACFL [2]: 4.38 ± 0.22 relative Trolox equivalent

SMILES: O=C(O)/C=C/c1ccc(O)c(O)c1 [Caffeic Acid]
- ORACB-PE [1]: 1.40 ± 0.09 relative Trolox equivalent
- Ratio (ORACFL/ORACB-PE) [2]: 3.12
- ORACFL [2]: 4.37 ± 0.24 relative Trolox equivalent

SMILES: O=c1c(-c2ccc(O)cc2)coc2cc(O)cc(O)c12 [Genistein]
- ORACB-PE [1]: 2.3 ± 0.16 relative Trolox equivalent
- Ratio (ORACFL/ORACB-PE) [2]: 2.57
- ORACFL [2]: 5.93 ± 0.45 relative Trolox equivalent

SMILES: O=C1O[C@H]([C@@H](O)CO)C(O)=C1O [Vitamin C]
- ORACB-PE [1]: 0.43 ± 0.03 relative Trolox equivalent
- Ratio (ORACFL/ORACB-PE) [2]: 2.21
- ORACFL [2]: 0.95 ± 0.02 relative Trolox equivalent
